Data taken from patent publication US20220142995A1, “DUAL ATM AND DNA-PK INHIBITORS FOR USE IN ANTI-TUMOR THERAPY” (XRAD Therapeutics, Inc., priority 2019, published 2022).

Test system: TBK1
Assay: Immunoblot of TBK1 phosphorylation in HCT116 cells (p53 wild-type or p53-/-)
Assay type: cell-based
Description: Cell Culture. The MCF-7 human breast carcinoma cell line and HCT116 p53 wild-type and HCT116 p53−/− cell lines were obtained from ATCC. […]
Immunoblotting. […] One hour after IR, cells were lysed in RIPA buffer ([…], pH 8.0, 150 mM NaCl, 0.1% SDS, 0.5% sodium deoxycholate, 1% IGEPAL® CA-630 (Sigma, 18896) for 20 min at 4° C. in the presence of protease and phosphatase inhibitor cocktails (Roche, #04693159001 & #04906837001). Cell lysates were centrifuged at 13,200 g for 10 min at 4° C. and supernatants were analyzed for protein content using BCA assay (Pierce™ BCA Protein Assay Kit, cat #23227, ThermoFisher Waltham, Mass. 02451) and equal amounts of protein/lane were used for subsequent immunoblot analyses. Proteins were denatured by adding NuPAGE LSD Sample Buffer [4×] […]

SMILES: CC(C)NCCOc1ncc(-c2cc3c4c(cnc3cc2F)N(C)C(=O)C42CCC2)cc1NS(C)(=O)=O [Compound 569, N-(5-(7′-Fluoro-3′-methyl-2′-oxo-2′,3′-dihydrospiro[cyclobutane-1,1′-pyrrolo[2,3-c]quinolin]-8′-yl)-2-(2-(isopropylamino)ethoxy)pyridin-3-yl)methanesulfonamide]
- induction of phosphorylation (activation) of TBK1 (HCT116 p53 wild-type or p53-/- cells, 569 1 μM, ATMi + DNA-PKi 0.5 or 1 micromolar each, 0 or 10 Gy): more potent activator of TBK1 phosphorylation than either of the single target kinase inhibitors
- dependence of TBK1 activation on p53 status (HCT116 p53 wild-type vs p53-negative cells, 1 μM): independent of p53 status
